Measured values from ChEMBL document CHEMBL1201862, “PubChem BioAssay data set” (2004).
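In this assay, cells in 96-well plates receive the compound at five concentrations for 48 hours. Endpoints are linearly interpolated between the surrounding concentrations. At the GI50, growth is halved.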 Active and inactive are the calls of the source. Rule as the data show it: active = GI50 up to about 1.1 µM and inactive = higher.

Assays:
Experiment in all cases: NCI tumour cell line growth inhibition, 48 h
OVCAR-3 = system: OVCAR-3
IGROV-1 = system: IGROV-1
MOLT-4 = system: MOLT-4
HOP-62 = system: HOP-62
SNB-75 = system: SNB-75
UACC-257 = system: UACC-257
K562 = system: K562
HCT-116 = system: HCT-116
NCI-H460 = system: NCI-H460
ACHN = system: ACHN
EKVX = system: EKVX
NCI-H522 = system: NCI-H522
SF-539 = system: SF-539
A549 = system: A549
SW-620 = system: SW-620
CCRF-CEM = system: CCRF-CEM
DMS-114 = system: DMS-114
HOP-92 = system: HOP-92
MCF7 = system: MCF7
Malme-3M = system: Malme-3M

Compound: COC(=O)C1=C(OC(=O)/C(=C/c2ccc(Cl)cc2)c2ccc(Cl)cc2)C(C(=O)OC)[C@]2(O)[C@@H](C(=O)OC)[C@H]1C[C@@H](c1ccccc1)[C@@H]2C(=O)OC (some centres not stated)
- GI50 (OVCAR-3): 27 µM (inactive)
- GI50 (IGROV-1): 38.8 µM (inactive)
- GI50 (MOLT-4): 2.22 µM (inactive)
- GI50 (HOP-62): 32.7 µM (inactive)
- GI50 (SNB-75): > 100 µM (inactive)
- GI50 (UACC-257): > 100 µM (inactive)
- GI50 (K562): 91.6 µM (inactive)
- GI50 (HCT-116): > 100 µM (inactive)
- GI50 (NCI-H460): > 100 µM (inactive)
- GI50 (ACHN): > 100 µM (inactive)
- GI50 (EKVX): 70.5 µM (inactive)
- GI50 (NCI-H522): 3.85 µM (inactive)
- GI50 (SF-539): > 100 µM (inactive)
- GI50 (A549): 52.8 µM (inactive)
- GI50 (SW-620): > 100 µM (inactive)

Compound: C/C=C/c1cc(=O)c([C@@H]2OC(=O)c3cc(OC)cc(OC)c32)co1 [VERMISTATIN]
- GI50 (OVCAR-3): 20.7 µM (inactive)
- GI50 (CCRF-CEM): 24.1 µM (inactive)
- GI50 (IGROV-1): 37 µM (inactive)
- GI50 (MOLT-4): 38.6 µM (inactive)
- GI50 (HOP-62): 53 µM (inactive)
- GI50 (SNB-75): 6.49 µM (inactive)
- GI50 (DMS-114): 21.7 µM (inactive)
- GI50 (UACC-257): 29.1 µM (inactive)
- GI50 (K562): 33.8 µM (inactive)
- GI50 (HCT-116): 23.7 µM (inactive)
- GI50 (NCI-H460): 58.3 µM (inactive)
- GI50 (ACHN): 45.3 µM (inactive)
- GI50 (HOP-92): 49 µM (inactive)
- GI50 (EKVX): 65.5 µM (inactive)
- GI50 (SF-539): 26.7 µM (inactive)
- GI50 (A549): 58.6 µM (inactive)
- GI50 (SW-620): 55.5 µM (inactive)

Compound: O=C1C=CC[C@H]2O[C@@H](COC(=O)Cc3ccccc3)C[C@H]2O1
- GI50 (OVCAR-3): 38.6 µM (inactive)
- GI50 (CCRF-CEM): 41.4 µM (inactive)
- GI50 (IGROV-1): 20 µM (inactive)
- GI50 (MOLT-4): 25.4 µM (inactive)
- GI50 (HOP-62): 41.2 µM (inactive)
- GI50 (SNB-75): 30.4 µM (inactive)
- GI50 (UACC-257): 40.4 µM (inactive)
- GI50 (MCF7): 44.3 µM (inactive)
- GI50 (K562): 55.6 µM (inactive)
- GI50 (NCI-H460): 31.9 µM (inactive)
- GI50 (ACHN): 32.1 µM (inactive)
- GI50 (HOP-92): 28.1 µM (inactive)
- GI50 (EKVX): 29.5 µM (inactive)
- GI50 (SF-539): 29.6 µM (inactive)
- GI50 (A549): 27.1 µM (inactive)
- GI50 (SW-620): 24 µM (inactive)

Compound: O=C1c2cccc3c2C(=O)c2c(cccc21)OCCOCCOCCOCCO3
- GI50 (Malme-3M): > 100 µM (inactive)
- GI50 (OVCAR-3): > 100 µM (inactive)
- GI50 (CCRF-CEM): 47.2 µM (inactive)
- GI50 (IGROV-1): > 100 µM (inactive)
- GI50 (MOLT-4): 31.5 µM (inactive)
- GI50 (HOP-62): > 100 µM (inactive)
- GI50 (SNB-75): 40.9 µM (inactive)
- GI50 (DMS-114): 86.1 µM (inactive)
- GI50 (UACC-257): > 100 µM (inactive)
- GI50 (K562): 61.4 µM (inactive)
- GI50 (HCT-116): > 100 µM (inactive)
- GI50 (NCI-H460): 78.3 µM (inactive)
- GI50 (ACHN): 78.5 µM (inactive)
- GI50 (EKVX): > 100 µM (inactive)
- GI50 (NCI-H522): > 100 µM (inactive)
- GI50 (SF-539): > 100 µM (inactive)
- GI50 (A549): > 100 µM (inactive)
- GI50 (SW-620): > 100 µM (inactive)

Compound: CC1SC(c2ccccc2)N(Nc2c3ccccc3nc3ccccc23)C1=O (configuration not stated)
- GI50 (Malme-3M): > 100 µM (inactive)
- GI50 (OVCAR-3): > 100 µM (inactive)
- GI50 (CCRF-CEM): 69.8 µM (inactive)
- GI50 (IGROV-1): 27 µM (inactive)
- GI50 (MOLT-4): 28.9 µM (inactive)
- GI50 (HOP-62): > 100 µM (inactive)
- GI50 (SNB-75): 34.6 µM (inactive)
- GI50 (DMS-114): 45.5 µM (inactive)
- GI50 (UACC-257): 83.6 µM (inactive)
- GI50 (K562): 40.6 µM (inactive)
- GI50 (HCT-116): 75.3 µM (inactive)
- GI50 (NCI-H460): > 100 µM (inactive)
- GI50 (ACHN): > 100 µM (inactive)
- GI50 (EKVX): 48.2 µM (inactive)
- GI50 (NCI-H522): 40 µM (inactive)
- GI50 (SF-539): > 100 µM (inactive)
- GI50 (A549): 58.5 µM (inactive)
- GI50 (SW-620): > 100 µM (inactive)

Compound: CC(C)=CCc1c(O)ccc2c1OC1c3ccc(O)c(CC=C(C)C)c3OCC21 (configuration not stated)
- GI50 (Malme-3M): 17 µM (inactive)
- GI50 (OVCAR-3): 13.6 µM (inactive)
- GI50 (CCRF-CEM): 6.62 µM (inactive)
- GI50 (IGROV-1): 10.3 µM (inactive)
- GI50 (MOLT-4): 3.14 µM (inactive)
- GI50 (HOP-62): 9.84 µM (inactive)
- GI50 (SNB-75): 15.9 µM (inactive)
- GI50 (DMS-114): 11.4 µM (inactive)
- GI50 (UACC-257): 13.8 µM (inactive)
- GI50 (MCF7): 8.89 µM (inactive)
- GI50 (K562): 4.42 µM (inactive)
- GI50 (HCT-116): 5.12 µM (inactive)
- GI50 (NCI-H460): 5.15 µM (inactive)
- GI50 (HOP-92): > 100 µM (inactive)
- GI50 (EKVX): 5.62 µM (inactive)
- GI50 (NCI-H522): 11.3 µM (inactive)
- GI50 (SF-539): 10.5 µM (inactive)
- GI50 (A549): 7.94 µM (inactive)
- GI50 (SW-620): 6.79 µM (inactive)

Compound: CCCCN1C=CN2c3nc4cc(C)c(C)cc4n3C(C(=O)OC)=C(C(=O)OC)C12 (configuration not stated)
- GI50 (Malme-3M): > 100 µM (inactive)
- GI50 (OVCAR-3): > 100 µM (inactive)
- GI50 (CCRF-CEM): > 100 µM (inactive)
- GI50 (IGROV-1): > 100 µM (inactive)
- GI50 (MOLT-4): > 100 µM (inactive)
- GI50 (HOP-62): > 100 µM (inactive)
- GI50 (SNB-75): > 100 µM (inactive)
- GI50 (DMS-114): > 100 µM (inactive)
- GI50 (UACC-257): > 100 µM (inactive)
- GI50 (K562): > 100 µM (inactive)
- GI50 (HCT-116): > 100 µM (inactive)
- GI50 (NCI-H460): > 100 µM (inactive)
- GI50 (ACHN): > 100 µM (inactive)
- GI50 (HOP-92): > 100 µM (inactive)
- GI50 (EKVX): > 100 µM (inactive)
- GI50 (NCI-H522): > 100 µM (inactive)
- GI50 (SF-539): > 100 µM (inactive)
- GI50 (A549): > 100 µM (inactive)
- GI50 (SW-620): > 100 µM (inactive)

Compound: CC12CCC3C(CCC4(O)C=CCCC34C=O)C1(O)CC(O)C2c1ccc(=O)oc1 (configuration not stated)
- GI50 (Malme-3M): 0.0521 µM (active)
- GI50 (OVCAR-3): 0.0625 µM (active)
- GI50 (CCRF-CEM): 0.0526 µM (active)
- GI50 (IGROV-1): 0.0681 µM (active)
- GI50 (MOLT-4): < 0.05 µM (active)
- GI50 (HOP-62): 0.0556 µM (active)
- GI50 (SNB-75): 0.0713 µM (active)
- GI50 (DMS-114): < 0.05 µM (active)
- GI50 (UACC-257): 0.104 µM (active)
- GI50 (MCF7): 0.0773 µM (active)
- GI50 (K562): 0.0741 µM (active)
- GI50 (HCT-116): 0.0573 µM (active)
- GI50 (NCI-H460): 0.0527 µM (active)
- GI50 (HOP-92): 0.105 µM (active)
- GI50 (EKVX): 0.0564 µM (active)
- GI50 (NCI-H522): < 0.05 µM (active)
- GI50 (SF-539): < 0.05 µM (active)
- GI50 (A549): 0.0504 µM (active)
- GI50 (SW-620): 0.0741 µM (active)

Compound: Cc1c(C2=NN=C(/N=N/c3c(O)cccc3O)/C2=C/c2ccccc2)c(=O)n(-c2ccccc2)n1C
- GI50 (Malme-3M): > 100 µM (inactive)
- GI50 (OVCAR-3): > 100 µM (inactive)
- GI50 (CCRF-CEM): > 100 µM (inactive)
- GI50 (IGROV-1): > 100 µM (inactive)
- GI50 (MOLT-4): > 100 µM (inactive)
- GI50 (HOP-62): > 100 µM (inactive)
- GI50 (SNB-75): > 100 µM (inactive)
- GI50 (DMS-114): > 100 µM (inactive)
- GI50 (UACC-257): > 100 µM (inactive)
- GI50 (MCF7): > 100 µM (inactive)
- GI50 (K562): > 100 µM (inactive)
- GI50 (HCT-116): > 100 µM (inactive)
- GI50 (NCI-H460): > 100 µM (inactive)
- GI50 (HOP-92): > 100 µM (inactive)
- GI50 (EKVX): > 100 µM (inactive)
- GI50 (NCI-H522): > 100 µM (inactive)
- GI50 (SF-539): > 100 µM (inactive)
- GI50 (A549): > 100 µM (inactive)
- GI50 (SW-620): > 100 µM (inactive)

Compound: O=C(O)CCC(NC(=O)c1ccc(Nc2cnc3cc(C(F)(F)F)ccc3n2)cc1)C(=O)O (configuration not stated)
- GI50 (Malme-3M): > 100 µM (inactive)
- GI50 (OVCAR-3): > 100 µM (inactive)
- GI50 (CCRF-CEM): > 100 µM (inactive)
- GI50 (IGROV-1): > 100 µM (inactive)
- GI50 (MOLT-4): > 100 µM (inactive)
- GI50 (HOP-62): > 100 µM (inactive)
- GI50 (SNB-75): > 35.6 µM (inactive)
- GI50 (DMS-114): > 100 µM (inactive)
- GI50 (UACC-257): > 100 µM (inactive)
- GI50 (MCF7): > 100 µM (inactive)
- GI50 (K562): > 100 µM (inactive)
- GI50 (HCT-116): > 100 µM (inactive)
- GI50 (NCI-H460): > 100 µM (inactive)
- GI50 (HOP-92): > 100 µM (inactive)
- GI50 (EKVX): > 100 µM (inactive)
- GI50 (NCI-H522): > 100 µM (inactive)
- GI50 (SF-539): > 100 µM (inactive)
- GI50 (A549): > 100 µM (inactive)
- GI50 (SW-620): > 100 µM (inactive)

Compound: COc1cc(/C=C(\C#N)C(N)=O)cc(Br)c1O
- GI50 (Malme-3M): > 100 µM (inactive)
- GI50 (OVCAR-3): > 100 µM (inactive)
- GI50 (CCRF-CEM): > 100 µM (inactive)
- GI50 (IGROV-1): > 100 µM (inactive)
- GI50 (MOLT-4): > 100 µM (inactive)
- GI50 (HOP-62): 92.3 µM (inactive)
- GI50 (UACC-257): > 100 µM (inactive)
- GI50 (MCF7): 95.1 µM (inactive)
- GI50 (HCT-116): > 100 µM (inactive)
- GI50 (NCI-H460): > 100 µM (inactive)
- GI50 (SF-539): > 100 µM (inactive)
- GI50 (A549): > 100 µM (inactive)
- GI50 (SW-620): > 100 µM (inactive)
